# Measurements published in ChEMBL document CHEMBL3885861, “Open TG-GATES”.
# Species on record: Rattus norvegicus
# Assay: Open TG-GATES - Regimen: Daily Repeat
# Type: toxicity, organism-based, Sprague-Dawley
# Design: regimen Daily Repeat, gender Male, age 6 weeks
# Conditions: in vivo, iv, route intravenous injection; for gamma-GTP / A/G / ALP / ALT / AST / BUN / CRE / Ca / Cl / DBIL / GLC / IP / K / LDH / Na / PL / RALB / TBIL / TC / TG / TP: tissue Plasma; for APTT / Bas / Eos / Fbg / Hb / Ht / Lym / MCH / MCHC / MCV / Mono / Neu / PT / Plat / RBC / Ret / WBC: tissue Blood; for KIDNEY_L / KIDNEY_R / KIDNEY_TOTAL: tissue Kidney; for LIVER: tissue Liver
# [1] = 4 mg/kg, […], dose level Low, time 14 day
# [2] = 4 mg/kg, […], dose level Low, time 28 day
# [3] = 12 mg/kg, 72 h, dose level Middle, time 3 day
# [4] = 12 mg/kg, […], dose level Middle, time 7 day
# [5] = 12 mg/kg, […], dose level Middle, time 14 day
# [6] = 12 mg/kg, […], dose level Middle, time 28 day
# [7] = 40 mg/kg, 72 h, dose level High, time 3 day
# [8] = 40 mg/kg, […], dose level High, time 7 day
structure (smiles),measurement,setting,value
CN(C)c1ncnc2c1ncn2[C@@H]1O[C@H](CO)[C@@H](N)[C@H]1O [PUROMYCIN AMINONUCLEOSIDE],gamma-GTP,"4 mg/kg, […], dose level Low, time 7 day",1.6 IU/L
same,A/G,[1],1.1
same,ALP,[1],1081.2 IU/L
same,ALT,[1],35.8 IU/L
same,AST,[1],64.2 IU/L
same,BUN,[1],19.2 mg/dL
same,CRE,[1],0.2 mg/dL
same,Ca,[1],10.9 mg/dL
same,Cl,[1],106.8 meq/L
same,DBIL,[1],0 mg/dL
same,GLC,[1],179.4 mg/dL
same,IP,[1],6.8 mg/dL
same,K,[1],4.2 meq/L
same,LDH,[1],141.2 IU/L
same,Na,[1],142.8 meq/L
same,PL,[1],143.4 mg/dL
same,RALB,[1],2.9 g/dL
same,TBIL,[1],0.002 mg/dL
same,TC,[1],76.8 mg/dL
same,TG,[1],129.2 mg/dL
same,TP,[1],5.5 g/dL
same,gamma-GTP,[1],1.4 IU/L
same,A/G,[2],0.7
same,ALP,[2],666.2 IU/L
same,ALT,[2],34.6 IU/L
same,AST,[2],47 IU/L
same,BUN,[2],17.2 mg/dL
same,CRE,[2],0.2 mg/dL
same,Ca,[2],10.4 mg/dL
same,Cl,[2],104.2 meq/L
same,DBIL,[2],0 mg/dL
same,GLC,[2],181.8 mg/dL
same,IP,[2],6.8 mg/dL
same,K,[2],4.3 meq/L
same,LDH,[2],134 IU/L
same,Na,[2],142.4 meq/L
same,PL,[2],334 mg/dL
same,RALB,[2],2.2 g/dL
same,TBIL,[2],0.006 mg/dL
same,TC,[2],203.8 mg/dL
same,TG,[2],254.2 mg/dL
same,TP,[2],5.4 g/dL
same,gamma-GTP,[2],1.2 IU/L
same,TERMINAL_BW,[3],221.5 g
same,APTT,[3],20.8 s
same,Bas,[3],0%
same,Eos,[3],1%
same,Fbg,[3],305.2 mg/dL
same,Hb,[3],13.2 g/dL
same,Ht,[3],38.5%
same,Lym,[3],86.2%
same,MCH,[3],21 pg
same,MCHC,[3],34.2%
same,MCV,[3],61.4 fL
same,Mono,[3],2%
same,Neu,[3],9.8%
same,PT,[3],16 s
same,Plat,[3],119.7 x10_4/uL
same,RBC,[3],626.8 x10_4/ul
same,Ret,[3],4.3%
same,WBC,[3],80.4 x10_2/uL
same,KIDNEY_L,[3],0.9 g
same,KIDNEY_R,[3],1 g
same,KIDNEY_TOTAL,[3],1.9 g
same,LIVER,[3],9.9 g
same,A/G,[3],1.3
same,ALP,[3],1198.8 IU/L
same,ALT,[3],39.4 IU/L
same,AST,[3],69.4 IU/L
same,BUN,[3],20.8 mg/dL
same,CRE,[3],0.2 mg/dL
same,Ca,[3],11.2 mg/dL
same,Cl,[3],104.6 meq/L
same,DBIL,[3],0 mg/dL
same,GLC,[3],174.4 mg/dL
same,IP,[3],8.2 mg/dL
same,K,[3],4.4 meq/L
same,LDH,[3],145.6 IU/L
same,Na,[3],141.2 meq/L
same,PL,[3],133 mg/dL
same,RALB,[3],3 g/dL
same,TBIL,[3],0.016 mg/dL
same,TC,[3],66.6 mg/dL
same,TG,[3],67.4 mg/dL
same,TP,[3],5.4 g/dL
same,gamma-GTP,[3],1.8 IU/L
same,TERMINAL_BW,[4],243.7 g
same,TERMINAL_BW,[5],292.3 g
same,TERMINAL_BW,[6],237.1 g
same,APTT,[4],21 s
same,Bas,[4],0%
same,Eos,[4],1%
same,Fbg,[4],304.2 mg/dL
same,Hb,[4],13.5 g/dL
same,Ht,[4],38.5%
same,Lym,[4],74.4%
same,MCH,[4],20.6 pg
same,MCHC,[4],35%
same,MCV,[4],58.9 fL
same,Mono,[4],2.6%
same,Neu,[4],21.6%
same,PT,[4],15.8 s
same,Plat,[4],107.5 x10_4/uL
same,RBC,[4],653.8 x10_4/ul
same,Ret,[4],3.3%
same,WBC,[4],93.9 x10_2/uL
same,APTT,[5],18.6 s
same,Bas,[5],0%
same,Eos,[5],0.8%
same,Fbg,[5],561 mg/dL
same,Hb,[5],13.1 g/dL
same,Ht,[5],35.4%
same,Lym,[5],78.2%
same,MCH,[5],20.3 pg
same,MCHC,[5],36.9%
same,MCV,[5],55.1 fL
same,Mono,[5],2.8%
same,Neu,[5],17%
same,PT,[5],13.1 s
same,Plat,[5],181.7 x10_4/uL
same,RBC,[5],641.8 x10_4/ul
same,Ret,[5],1.3%
same,WBC,[5],140.4 x10_2/uL
same,APTT,[6],15.1 s
same,Bas,[6],0%
same,Eos,[6],0.5%
same,Fbg,[6],627 mg/dL
same,Hb,[6],9.5 g/dL
same,Ht,[6],23.8%
same,Lym,[6],60.8%
same,MCH,[6],18.8 pg
same,MCHC,[6],40%
same,MCV,[6],46.9 fL
same,Mono,[6],5.2%
same,Neu,[6],32%
same,PT,[6],15.2 s
same,Plat,[6],137.6 x10_4/uL
same,RBC,[6],498.2 x10_4/ul
same,Ret,[6],0.5%
same,WBC,[6],106.1 x10_2/uL
same,KIDNEY_L,[4],1 g
same,KIDNEY_R,[4],1 g
same,KIDNEY_TOTAL,[4],2 g
same,KIDNEY_L,[5],1.6 g
same,KIDNEY_R,[5],1.6 g
same,KIDNEY_TOTAL,[5],3.2 g
same,KIDNEY_L,[6],2.3 g
same,KIDNEY_R,[6],2.3 g
same,KIDNEY_TOTAL,[6],4.6 g
same,LIVER,[4],10.4 g
same,LIVER,[5],12.1 g
same,LIVER,[6],12.8 g
same,A/G,[4],1.1
same,ALP,[4],1114.8 IU/L
same,ALT,[4],36.8 IU/L
same,AST,[4],66.4 IU/L
same,BUN,[4],21.8 mg/dL
same,CRE,[4],0.2 mg/dL
same,Ca,[4],10.8 mg/dL
same,Cl,[4],107.2 meq/L
same,DBIL,[4],0.002 mg/dL
same,GLC,[4],174.8 mg/dL
same,IP,[4],7.5 mg/dL
same,K,[4],4.2 meq/L
same,LDH,[4],139.2 IU/L
same,Na,[4],140.4 meq/L
same,PL,[4],139.2 mg/dL
same,RALB,[4],2.8 g/dL
same,TBIL,[4],0.014 mg/dL
same,TC,[4],76.2 mg/dL
same,TG,[4],86.8 mg/dL
same,TP,[4],5.3 g/dL
same,gamma-GTP,[4],1.4 IU/L
same,A/G,[5],0.5
same,ALP,[5],267.4 IU/L
same,ALT,[5],31.4 IU/L
same,AST,[5],35.8 IU/L
same,BUN,[5],77.4 mg/dL
same,CRE,[5],0.5 mg/dL
same,Ca,[5],9.3 mg/dL
same,Cl,[5],107.6 meq/L
same,DBIL,[5],0 mg/dL
same,GLC,[5],180.8 mg/dL
same,IP,[5],7.8 mg/dL
same,K,[5],4 meq/L
same,LDH,[5],214.2 IU/L
same,Na,[5],143.4 meq/L
same,PL,[5],533 mg/dL
same,RALB,[5],1.3 g/dL
same,TBIL,[5],0 mg/dL
same,TC,[5],344.6 mg/dL
same,TG,[5],454 mg/dL
same,TP,[5],4.1 g/dL
same,gamma-GTP,[5],1.8 IU/L
same,A/G,[6],0.4
same,ALP,[6],137.2 IU/L
same,ALT,[6],61 IU/L
same,AST,[6],53.2 IU/L
same,BUN,[6],86.5 mg/dL
same,CRE,[6],1.1 mg/dL
same,Ca,[6],8.4 mg/dL
same,Cl,[6],104 meq/L
same,DBIL,[6],0 mg/dL
same,GLC,[6],158.8 mg/dL
same,IP,[6],8.8 mg/dL
same,K,[6],3.9 meq/L
same,LDH,[6],391.8 IU/L
same,Na,[6],142.2 meq/L
same,PL,[6],854.5 mg/dL
same,RALB,[6],1.3 g/dL
same,TBIL,[6],0.0025 mg/dL
same,TC,[6],589 mg/dL
same,TG,[6],351 mg/dL
same,TP,[6],4.5 g/dL
same,gamma-GTP,[6],2.8 IU/L
same,TERMINAL_BW,[7],218.3 g
same,APTT,[7],19.2 s
same,Bas,[7],0%
same,Eos,[7],0.6%
same,Fbg,[7],356 mg/dL
same,Hb,[7],13.3 g/dL
same,Ht,[7],38.2%
same,Lym,[7],88.4%
same,MCH,[7],20.4 pg
same,MCHC,[7],34.7%
same,MCV,[7],58.9 fL
same,Mono,[7],2.4%
same,Neu,[7],7.4%
same,PT,[7],15.9 s
same,Plat,[7],136.4 x10_4/uL
same,RBC,[7],649 x10_4/ul
same,Ret,[7],2%
same,WBC,[7],82.2 x10_2/uL
same,KIDNEY_L,[7],0.9 g
same,KIDNEY_R,[7],1 g
same,KIDNEY_TOTAL,[7],1.9 g
same,LIVER,[7],9.6 g
same,A/G,[7],1.2
same,ALP,[7],892.8 IU/L
same,ALT,[7],40.6 IU/L
same,AST,[7],62 IU/L
same,BUN,[7],24.2 mg/dL
same,CRE,[7],0.2 mg/dL
same,Ca,[7],12.3 mg/dL
same,Cl,[7],102.8 meq/L
same,DBIL,[7],0 mg/dL
same,GLC,[7],179.6 mg/dL
same,IP,[7],10.8 mg/dL
same,K,[7],4.4 meq/L
same,LDH,[7],154.8 IU/L
same,Na,[7],141.2 meq/L
same,PL,[7],153 mg/dL
same,RALB,[7],3 g/dL
same,TBIL,[7],0.022 mg/dL
same,TC,[7],82 mg/dL
same,TG,[7],64.4 mg/dL
same,TP,[7],5.5 g/dL
same,gamma-GTP,[7],1.8 IU/L
same,TERMINAL_BW,[8],221.5 g
same,APTT,[8],18 s
same,Bas,[8],0%
same,Eos,[8],0.6%
same,Fbg,[8],621.8 mg/dL
same,Hb,[8],13.7 g/dL
same,Ht,[8],37.4%
same,Lym,[8],84.8%
same,MCH,[8],20.5 pg
same,MCHC,[8],36.6%
same,MCV,[8],56.2 fL
same,Mono,[8],2.6%
same,Neu,[8],10.8%
same,PT,[8],13 s
same,Plat,[8],106.2 x10_4/uL
same,RBC,[8],665.2 x10_4/ul
same,Ret,[8],0.8%
same,WBC,[8],108.1 x10_2/uL
same,KIDNEY_L,[8],1.2 g
same,KIDNEY_R,[8],1.2 g
same,KIDNEY_TOTAL,[8],2.4 g
same,LIVER,[8],8.2 g
same,A/G,[8],0.4
same,ALP,[8],264.4 IU/L
same,ALT,[8],65.8 IU/L
same,AST,[8],78.6 IU/L
same,BUN,[8],166.8 mg/dL
same,CRE,[8],1 mg/dL
same,Ca,[8],9.1 mg/dL
same,Cl,[8],101 meq/L
same,DBIL,[8],0 mg/dL
same,GLC,[8],164.4 mg/dL
same,IP,[8],12.6 mg/dL
same,K,[8],5 meq/L
same,LDH,[8],484 IU/L
same,Na,[8],135.4 meq/L
same,PL,[8],387.2 mg/dL
same,RALB,[8],1.1 g/dL
same,TBIL,[8],0.01 mg/dL
same,TC,[8],266.6 mg/dL
same,TG,[8],125.6 mg/dL
same,TP,[8],3.5 g/dL
same,gamma-GTP,[8],2.4 IU/L
